Measured values from EP1891948A1, “Treatment of neurological and neuropsychological disorders” (Probiodrug AG, priority 2000, dated 2002).

System: WistarF/Han (WF) rats
Experiment: Social interaction (SI) test of anxiety, combined i.c.v. treatment (Example 3)
Assay type: in vivo
Details: isoleucyl thiazolidine alone 5pmol-500nmol, Fig. 7
Description: Animals. Male WistarF/Han (WF) rats (Central Animal Laboratory, Hannover Medical School, Hannover, Germany, see http://www.mh-hannover.de/institut/tierlabor/wf.htm for details), weighing 330-370g, were housed in a sound-proof, temperature controlled (24.0±0.5°C) room under specific pathogen free conditions with a 12/12h dark/light cycle (lights on at 07.00 with illumination level of 80 Lux). Food (Altromin lab chow pellets) and tap water were available ad libitum. Under ketamine/xylasine (100/5 mg/kg, i.p.) anesthesia, the rats were fixed in a Kopf stereotaxic frame and implanted with cannulae (Plastic One, Inc., Roanoke, VA, USA) above the lateral ventricle. […]
Animals were randomly divided into two sets of four experimental groups (n=5-6/group), which completed different consecutive SI test of anxiety. […] The time spent in active social interaction (SI-time), 1h and 12h food-intake were measured. […]
Social interaction (SI) test. […] Behavior was monitored using a video camera placed above the field inside the testing/isolation box. The SI behavior of both rats was recorded on-line from a monitor placed outside on top of the box. The following parameters were scored by an observer (HPN) unaware of the substrain of rats: duration of time spent in sniffing, following, crawling under and over other rats, but not passive body contact (resting, sleeping). […]

## CCC(C)C(N)C(=O)N1CCSC1 (stereo not shown) [isoleucyl thiazolidine]
  time spent in active social interaction (SI-time): "bell-shaped" dose-dependent anxiolytic-like effects
